Laboratory results from BindingDB's records for doi:10.1021/jm00039a008 (Albany Molecular Research, 1994).
Counter-ions that a name gives are not always drawn.

assay: Affinity at sigma-1 site by inhibition of [3H](+)-pentazocine (PENT) binding in guinea pig brain

Which Ki does the source give for `O=C(OCCN1CCN(c2ccccc2)CC1)C1(c2ccc(Cl)cc2)CCCC1` [1-(4-Chloro-phenyl)-cyclopentanecarboxylic acid 2-(4-phenyl-piperazin-1-yl)-ethyl ester; hydrochloride] here?
The Ki was 77 nM.

With `O=C(OCCN1CCC(c2ccccc2)CC1)C1(c2ccc(Cl)cc2)CCCC1` [1-(4-Chloro-phenyl)-cyclopentanecarboxylic acid 2-(4-phenyl-piperidin-1-yl)-ethyl ester; hydrochloride] as the compound, how does the Ki read?
The Ki was 1.3 nM.

Which Ki does the source give for `O=C(OCCCN1CCC(c2ccccc2)CC1)C1(c2ccc(Cl)cc2)CCCC1` [1-(4-Chloro-phenyl)-cyclopentanecarboxylic acid 3-(4-phenyl-piperidin-1-yl)-propyl ester; hydrochloride] here?
The Ki was 1.5 nM.

Which Ki does the source give for `N#Cc1ccc(C2(C(=O)OCCN3CCC(c4ccccc4)CC3)CCCC2)cc1` [1-(4-Cyano-phenyl)-cyclopentanecarboxylic acid 2-(4-phenyl-piperidin-1-yl)-ethyl ester; hydrochloride] here?
The Ki was 1.3 nM.

With `O=C(OCCN1CCN(c2ccccc2)CC1)C1(c2ccc(I)cc2)CCCC1` [1-(4-Iodo-phenyl)-cyclopentanecarboxylic acid 2-(4-phenyl-piperazin-1-yl)-ethyl ester; hydrochloride] as the compound, how does the Ki read?
The Ki was 23 nM.

Which Ki does the source give for `O=C(OCCN1CCC(c2ccccc2)CC1)C1(c2ccc(I)cc2)CCCC1` [1-(4-Iodo-phenyl)-cyclopentanecarboxylic acid 2-(4-phenyl-piperidin-1-yl)-ethyl ester; hydrochloride] here?
Its Ki is 1.4 nM.

With `O=C(OCCCN1CCC(c2ccccc2)CC1)C1(c2ccc(I)cc2)CCCC1` [1-(4-Iodo-phenyl)-cyclopentanecarboxylic acid 3-(4-phenyl-piperidin-1-yl)-propyl ester; hydrochloride] as the compound, how does the Ki read?
The Ki was 0.88 nM.

With `COc1ccc(C2(C(=O)OCCN3CCC(c4ccccc4)CC3)CCCC2)cc1` [1-(4-Methoxy-phenyl)-cyclopentanecarboxylic acid 2-(4-phenyl-piperidin-1-yl)-ethyl ester; hydrochloride] as the compound, how does the Ki read?
The Ki was 1 nM.

With `COc1ccc(C2(C(=O)OCCCN3CCC(c4ccccc4)CC3)CCCC2)cc1` [1-(4-Methoxy-phenyl)-cyclopentanecarboxylic acid 3-(4-phenyl-piperidin-1-yl)-propyl ester; hydrochloride] as the compound, how does the Ki read?
Its Ki is 0.65 nM.

With `O=C(OCCN1CCN(c2ccccc2)CC1)C1(c2ccc([N+](=O)[O-])cc2)CCCC1` [1-(4-Nitro-phenyl)-cyclopentanecarboxylic acid 2-(4-phenyl-piperazin-1-yl)-ethyl ester; hydrochloride] as the compound, how does the Ki read?
The Ki was 2.8 nM.

Which Ki does the source give for `O=C(OCCCN1CCC(c2ccccc2)CC1)C1(c2ccc([N+](=O)[O-])cc2)CCCC1` [1-(4-Nitro-phenyl)-cyclopentanecarboxylic acid 3-(4-phenyl-piperidin-1-yl)-propyl ester; hydrochloride] here?
Its Ki is 0.27 nM.

For `O=C(OCCN1CCN(c2ccccc2)CC1)C1(c2ccccc2)CCCC1` [1-Phenyl-cyclopentanecarboxylic acid 2-(4-phenyl-piperazin-1-yl)-ethyl ester; hydrochloride], which Ki is on record?
The Ki was 63 nM.

For `O=C(OCCN1CCC(c2ccccc2)CC1)C1(c2ccccc2)CCCC1` [1-Phenyl-cyclopentanecarboxylic acid 2-(4-phenyl-piperidin-1-yl)-ethyl ester; hydrochloride], which Ki is on record?
Its Ki is 4 nM.

With `O=C(OCCCCN1CCC(c2ccccc2)CC1)C1(c2ccccc2)CCCC1` [1-Phenyl-cyclopentanecarboxylic acid 4-(4-phenyl-piperidin-1-yl)-butyl ester; hydrochloride] as the compound, how does the Ki read?
The Ki was 0.51 nM.

Which Ki does the source give for `O=C(OCCCCCCN1CCC(c2ccccc2)CC1)C1(c2ccccc2)CCCC1` [1-Phenyl-cyclopentanecarboxylic acid 6-(4-phenyl-piperidin-1-yl)-hexyl ester; hydrochloride] here?
Its Ki is 1.2 nM.

assay: Binding affinity was measured as selectivity for sigma-1 site over muscarinic (M1) receptor in rat

With `COc1ccc2c(c1)[C@]13CCCC[C@@H]1[C@H](C2)N(C)CC3` [DEXTROMETHORPHAN] as the compound, how does the Ki read?
The Ki was 5070 nM.
